Values after ≈ are worked out from the molar mass of the structure shown.
Legend:
[1] = tested on: Lepeophtheirus salmonis copepodids; assay: Activity in vitro against Lepeophtheirus salmonis at copepodid stage; settings: 1 hour contact in sea water, then 48 h in untreated sea water, no movement over 80 seconds, read-out: efficacy (EC80)
Procedure: Activity in Vitro Against Lepeophtheirus Salmonis at Copepodid Stage Sea lice copepodids were used to seed a 96-well plate containing the test substances to be evaluated for antiparasitic activity. Each compound was tested by serial dilution in order to determine its minimal effective dose (MED). Copepodids were left in contact with the test compound diluted in sea water for 1 hour. They were then incubated in untreated sea water for 48 h. Efficacy against sea lice was then confirmed if no copepodid moved over a period of 80 seconds.

[2] = tested on: Lepeophtheirus salmonis on Atlantic salmon; assay: In vivo activity against Lepeophtheirus salmonis on Atlantic salmon using injectable application
Procedure: In Vivo Activity of Compound 8 Against Lepeophtheirus Salmonis on Atlantic Salmon using Injectable Application
Twenty Atlantic salmon (mean weights at about 100 g) were anaesthetized with 2-phenoxy ethanol, individually weighed and injected with 0.2 ml of compound 8 formulated in PEG300 at 2.5%, corresponding to a 50 mg/kg dose. Each treatment was administered by single IP injection and fish were then transferred to a flow through tank, the temperature of which was maintained between 6 and 14° C. Louse infection was by exposure of experimental fish to louse copepodids freshly hatched from Lepeophtheirus salmonis egg strings. The number of copepodids used was selected to provide a settlement rate of at least 10 lice per fish. Sea louse numbers were assessed when they had developed to chalimus stage III/IV or later on if needed.
(§1) Ten fish per group were anaesthetized with 2 phenoxy-ethanol and examined for louse settlement under a dissecting microscope. Differences in sea louse counts between each test group and the relevant control group (non treated) infested at the same time as the test group were assessed using Mann-Whitney Tests. Efficacy was calculated using the formula: % Efficacy=100−(100×mean of treatment group/mean of control).

[3] = tested on: Lepeophtheirus salmonis adult lice; assay: In vitro activity against Lepeophtheirus salmonis at adult stage; settings: at 1 ppm; 60 minutes exposure, survival at 24 hours post exposure, 12° C.
Procedure: In Vitro Activity of Compound 8 Against Lepeophtheirus Salmonis at Adult Stage
Ten mixed sex adult lice (non gravid, Lepeophtheirus salmonis) were removed from fish and exposed to a test compound at several dilution in filtered sea water and placed in an incubator at 12° C. in dark conditions. After 60 minutes exposure, lice were rinsed in clean sea water and transferred to petri dishes containing 100 mL of sea water. They were then returned to the incubator. Lice were examined for survival at 24 hours post exposure (moribund lice considered as dead)

[4] = tested on: Lepeophtheirus salmonis on Atlantic salmon; assay: In vivo activity against Lepeophtheirus salmonis on Atlantic salmon using in-feed application; settings: medicated pellets 9.8 mg/kg/day, 7 consecutive days
Procedure: In Vivo Activity of Compound 8 Against Lepeophtheirus Salmonis on Atlantic Salmon using In-Feed Application
Compound 8 was administered orally via medicated fish pellets at an average dose of 9.8 mg/kg/day during 7 consecutive days to 50 Atlantic salmon infected with lice (Lepeophtheirus salmonis). The medicated pellets were prepared by dry top coating of the compound 8, formulated as feed additive as described above, and over-oiling to seal (1% fish oil). Fish had been previously infected by exposure to louse. The number of copepodids used was selected to provide an settlement rate of at least 10 lice per fish. Treatment was done when lice had developed to pre-adult II and adult stages. Sea louse numbers were assessed 34 days post treatment. A second challenge using louse copepodids took place at 41 days post treatment. Sea louse numbers were assessed when they had developed to adults.
as §1, with “All” for “Ten”, “fish” for “fish per group”

[5] = tested on: Lepeophtheirus salmonis on Atlantic salmon; assay: In vivo activity against Lepeophtheirus salmonis on Atlantic salmon using bath treatment application; settings: bath 2 ppm in salt water, 60 minutes
Procedure: In Vivo Activity of Compound 8 Against Lepeophtheirus Salmonis on Atlantic Salmon using Bath Treatment Application Bath containing compound 8 at 2 ppm in salt water was prepared by dilution of a solution of compound 8 in DMSO. Fish (Atlantic salmons) had been previously infected with 2 cohorts of lice to ensure the presence of chalimus and motile lice at the time of treatment. This test was performed on thirty fish per group and was compared to 30 control fish that were bathed in sea water containing DMSO only (at an inclusion rate equal to that used in the test group using the most DMSO as solvent), for 60 minutes. The fish were then transferred to holding tanks and sampled for lice numbers at 3 and 10 days post treatment. Ten fish per group were anaesthetized with 2 phenoxy-ethanol and examined for louse settlement under a dissecting microscope. Differences in sea louse counts between each test group and the relevant control group (non treated) infested at the same time as the test group were assessed using Mann-Whitney Tests. Efficacy was calculated using the formula: % Efficacy=100−(100×mean of treatment group/mean of control).

[6] = 50 mg/kg IP, 14 days post treatment, Chalimus III
[7] = 50 mg/kg IP, 41 days post treatment, Chalimus III
[8] = 50 mg/kg IP, 83 days post treatment, Chal III/IV
[9] = 50 mg/kg IP, 127 days post treatment, Chal III/IV
[10] = 50 mg/kg IP, 169 days post treatment, Chal III/IV
[11] = 50 mg/kg IP, 217 days post treatment, Adults
[12] = 50 mg/kg IP, 217 days post treatment, Chal III/IV
[13] = 50 mg/kg IP, 217 days post treatment, PAI & PAII
[14] = 50 mg/kg IP, 252 days post treatment, Chal IV/PAI

`COC(=O)CNC(=O)c1ccc(C2=NOC(c3cc(Cl)cc(Cl)c3)(C(F)(F)F)C2)c2ccccc12` (centres unmarked) [Example 10] gave an EC80 [1] of 0.05 µg/mL (≈ 0.0952 µM).
With `Cc1cc(C2=NOC(c3cc(Cl)cc(Cl)c3)(C(F)(F)F)C2)ccc1-n1cncn1` (centres unmarked) [Example 1] the EC80 [1] was 0.05 µg/mL (≈ 0.113 µM).
Work on `COCCC(=O)NCc1ccc(C2=NOC(c3cc(Cl)cc(Cl)c3)(C(F)(F)F)C2)cc1C` (centres unmarked) [Example 18] yielded an EC80 [1] of 0.05 µg/mL (≈ 0.102 µM).
`Cc1cc(C2=NOC(c3cc(Cl)cc(Cl)c3)(C(F)(F)F)C2)ccc1CNC(=O)CCC#N` (centres unmarked) [Example 33] gave an EC80 [1] of 0.05 µg/mL (≈ 0.103 µM).
Molecule `CON/C=N\C(=O)c1ccc(C2=NOC(c3cc(Cl)cc(Cl)c3)(C(F)(F)F)C2)c2ccccc12` (centres unmarked) [Example 13] has an EC80 [1] of 0.05 µg/mL (≈ 0.098 µM).
With `Cc1cc(C2=NOC(c3cc(Cl)cc(Cl)c3)(C(F)(F)F)C2)ccc1CNC(=O)CC(C)C` (centres unmarked) [Example 31] the EC80 [1] was 0.05 µg/mL (≈ 0.103 µM).
`CC(=O)NCc1ccc(C2=NOC(c3cc(Cl)cc(Cl)c3)(C(F)(F)F)C2)cc1C` (centres unmarked) [Example 29] gave an EC80 [1] of 0.05 µg/mL (≈ 0.112 µM).
For `O=C(NCc1ccccn1)c1ccc(C2=NOC(c3cc(Cl)cc(Cl)c3)(C(F)(F)F)C2)c2ccccc12` (centres unmarked) [Example 7], the EC80 [1] was 0.05 µg/mL (≈ 0.0919 µM).
With `Cc1cc(C2=NOC(c3cc(Cl)cc(Cl)c3)(C(F)(F)F)C2)ccc1CNC(=O)C1CC1` (centres unmarked) [Example 24] the EC80 [1] was 0.05 µg/mL (≈ 0.106 µM).
Molecule `O=C(CNC(=O)c1ccc(C2=NOC(c3cc(Cl)cc(Cl)c3)(C(F)(F)F)C2)c2ccccc12)NCC(F)(F)F` (centres unmarked) [Example 11] has an EC80 [1] of 0.05 µg/mL (≈ 0.0844 µM).
`CON/C=N/C(=O)c1ccc(C2=NOC(c3cc(Cl)cc(Cl)c3)(C(F)(F)F)C2)cc1C` (centres unmarked) [Example 16] showed an EC80 [1] of 0.05 µg/mL (≈ 0.105 µM).
With `Cc1cc(C2=NOC(c3cc(Cl)cc(Cl)c3)(C(F)(F)F)C2)ccc1C(=O)NCC(F)(F)F` (centres unmarked) [Example 3] the EC80 [1] was 0.05 µg/mL (≈ 0.1 µM).
`O=C(NCC(F)(F)F)c1ccc(C2=NOC(c3cc(Cl)cc(Cl)c3)(C(F)(F)F)C2)c2ccccc12` (centres unmarked) [Example 8] was tested, and the Efficacy [2, 6] was 99.5%, the “Mean lice count of treated fish ± s.d.” value [2, 6] was 0.1 ± 0.3 and the Efficacy [2, 7] was 100%. For the same molecule, the “Mean lice count of treated fish ± s.d.” value [2, 7] was 0.0 ± 0.0, the Efficacy [2, 8] was 100% and the “Mean lice count of treated fish ± s.d.” value [2, 8] was 0.0 ± 0.0. For the same molecule, the Efficacy [2, 9] was 100%, the “Mean lice count of treated fish ± s.d.” value [2, 9] was 0.0 ± 0.0 and the Efficacy [2, 10] was 100%. For the same molecule, the “Mean lice count of treated fish ± s.d.” value [2, 10] was 0.0 ± 0.0, the Efficacy [2, 11] was 97.3% and the “Mean lice count of treated fish ± s.d.” value [2, 11] was 0.5 ± 1.0. The Efficacy [2, 12] was 74.3%, the “Mean lice count of treated fish ± s.d.” value [2, 12] was 22.9 ± 27.7 and the Efficacy [2, 13] was 94.6%. The “Mean lice count of treated fish ± s.d.” value [2, 13] was 4.5 ± 5.8, the Efficacy ([2]; 50 mg/kg IP, 252 days post treatment, Adults) was 84.9% and the Efficacy [2, 14] was 29.8%. The “Mean lice count of treated fish ± s.d.” value [2, 14] was 21.4 ± 15.5, the Efficacy ([2]; single IP injection 50 mg/kg in PEG300, for up to 7 months post treatment) was “more than 90%” and the EC80 [1] was 0.05 µg/mL (≈ 0.0934 µM). The Efficacy [3] was “more than 90%”, the “efficacy as a curative treatment (first challenge)” value ([4]; lice assessed 34 days post treatment) was 100% and the “efficacy on the challenge performed 41 days post treatment” value ([4]; second challenge with copepodids, assessed at adult stage) was 100%. The “effective against adult sea lice” value ([5]; 3 days post treatment) was 100% and the “effective against developing chalimus stage” value ([5]; by 10 days post treatment) was 96%.
`CCCC(=O)NCc1ccc(C2=NOC(c3cc(Cl)cc(Cl)c3)(C(F)(F)F)C2)cc1C` (centres unmarked) [Example 25] gave an EC80 [1] of 0.05 µg/mL (≈ 0.106 µM).
With `CN(C)/C=N/C(=O)c1ccc(C2=NOC(c3cc(Cl)cc(Cl)c3)(C(F)(F)F)C2)c2ccccc12` (centres unmarked) [Example 12] the EC80 [1] was 0.05 µg/mL (≈ 0.0984 µM).
`CCC(=O)NCc1ccc(C2=NOC(c3cc(Cl)cc(Cl)c3)(C(F)(F)F)C2)cc1C` (centres unmarked) [Example 17] was tested, and the EC80 [1] was 0.05 µg/mL (≈ 0.109 µM).
`Cc1cc(C2=NOC(c3cc(Cl)cc(Cl)c3)(C(F)(F)F)C2)ccc1CNC(=O)C1CCC1` (centres unmarked) [Example 30] showed an EC80 [1] of 0.05 µg/mL (≈ 0.103 µM).
`CSCC(=O)NCc1ccc(C2=NOC(c3cc(Cl)cc(Cl)c3)(C(F)(F)F)C2)cc1C` (centres unmarked) [Example 28] was tested, and the EC80 [1] was 0.05 µg/mL (≈ 0.102 µM).
`Cc1cc(C2=NOC(c3cc(Cl)cc(Cl)c3)(C(F)(F)F)C2)ccc1C(=O)NCC(=O)NCC(F)(F)F` (centres unmarked) [Example 14] was tested, and the EC80 [1] was 0.05 µg/mL (≈ 0.0899 µM).
For `N#Cc1cc(C2=NOC(c3cc(Cl)cc(Cl)c3)(C(F)(F)F)C2)ccc1-n1cncn1` (centres unmarked) [Example 6], the EC80 [1] was 0.05 µg/mL (≈ 0.111 µM).
Molecule `Cc1cc(C2=NOC(c3cc(Cl)cc(Cl)c3)(C(F)(F)F)C2)ccc1CNC(=O)CC1(C)OCCO1` (centres unmarked) [Example 26] has an EC80 [1] of 0.05 µg/mL (≈ 0.0941 µM).
With `Cc1cc(C2=NOC(c3cc(Cl)cc(Cl)c3)(C(F)(F)F)C2)ccc1C(=O)NCc1ccccn1` (centres unmarked) [Example 2] the EC80 [1] was 0.05 µg/mL (≈ 0.0984 µM).

Reference: patent US9023836B2, “Use of substituted heterocyclic compounds to control sea lice on fish” (Novartis Tiergesundheit AG, priority 2010, dated 2015)
